Our source for the IC50 values is patent US20230159453A1 (COCRYSTAL PHARMA, INC., priority 2020, published 2023).

The experiment has as its target SARS2 protease (Severe acute respiratory syndrome coronavirus 2, UniProt P0DTD1). Briefly: SARS-CoV-2 protease inhibition assay (SARS2 FRET protease assay). Format: biochemical. As to conditions: SARS-CoV-2 protease 25 nM, FRET, peptide substrate 1.3 μM, 30 minutes at 30° C., compounds 20 μM to 1.0 nM; read-out: IC50.

As usually defined, the IC50 is the point on the concentration scale where inhibition reaches its midpoint. Consider `CC(C)C[C@H](NC(=O)OC(c1ccccc1)C(C)(C)c1cccc(Cl)c1)C(=O)N[C@@H](C[C@@H]1CCNC1=O)C(=O)C(N)=O` (stereo partly drawn) [Compound C207, 2-(3-Chlorophenyl)-2-methyl-1-phenylpropyl ((S)-1-(((S)-4-amino-3,4-dioxo-1-((S)-2-oxopyrrolidin-3-yl)butan-2-yl)amino)-4-methyl-1-oxopentan-2-yl)carbamate], for which the IC50 stood at 315 nM.
The same measure for `COc1cccc(CC2(OC(=O)N[C@@H](CC(C)C)C(=O)N[C@@H](C[C@@H]3CCNC3=O)C(=O)C(N)=O)CC2)c1` [Compound C93, 1-(3-Methoxybenzyl) cyclopropyl ((S)-1-(((S)-4-amino-3,4-dioxo-1-((S)-2-oxopyrrolidin-3-yl)butan-2-yl)amino)-4-methyl-1-oxopentan-2-yl) carbamate]: over 20000 nM; for `CC(C)(C)C(=O)N1CCC2(CC1)CC(CC(C=O)NC(=O)[C@H](CC1CCCCC1)NC(=O)OC1CCCC1Cc1cccc(Cl)c1)C(=O)N2` (stereo partly drawn) [Compound C202, 2-(3-Chlorobenzyl) cyclopentyl ((2S)-3-cyclohexyl-1-oxo-1-((1-oxo-3-(2-oxo-8-pivaloyl-1,8-diazaspiro[4.5]decan-3-yl)propan-2-yl)amino)propan-2-yl)carbamate]: 644 nM.
For `COc1cccc2[nH]c(C(=O)N[C@@H](CC(C)C)C(=O)NC(CC3CC4(CCCCC4)NC3=O)C(=O)CCl)cc12` (stereo partly drawn) [Compound C227, N-((2S)-1-((4-chloro-3-oxo-1-(2-oxo-1-azaspiro[4.5]decan-3-yl)butan-2-yl)amino)-4-methyl-1-oxopentan-2-yl)-4-methoxy-1H-indole-2-carboxamide], the IC50 was found to be 59 nM.
On to `CC(C)(c1cccc(Cl)c1)C(OC(=O)N[C@@H](CC1CCCCC1)C(=O)N[C@H](C=O)C[C@@H]1CCNC1=O)c1ccc(Cl)cc1` (stereo partly drawn) [Compound C143, 2-(3-Chlorophenyl)-1-(4-chlorophenyl)-2-methylpropyl ((S)-3-cyclohexyl-1-oxo-1-(((S)-1-oxo-3-((S)-2-oxopyrrolidin-3-yl)propan-2-yl)amino)propan-2-yl) carbamate], for which the IC50 came out at 3.6 nM.
Take `CC(C)(c1cccc(Cl)c1)C(OC(=O)N[C@@H](CC1CCCCC1)C(=O)N[C@H](C=O)C[C@@H]1CCNC1=O)c1ccc2c(c1)CCC2` (stereo partly drawn) [Compound C132, 2-(3-Chlorophenyl)-1-(2,3-dihydro-1H-inden-5-yl)-2-methylpropyl ((S)-3-cyclohexyl-1-oxo-1-(((S)-1-oxo-3-((S)-2-oxopyrrolidin-3-yl)propan-2-yl)amino)propan-2-yl)carbamate]: the IC50 is 60 nM.
The same measure for `CC(C)(c1cccc(Cl)c1)C(OC(=O)N[C@@H](Cc1ccccc1)C(=O)N[C@@H](C[C@@H]1CCNC1=O)C(=O)C(N)=O)c1ccccc1` (stereo partly drawn) [Compound C254]: 4270 nM; for `CC(C)C[C@H](NC(=O)OC(Cc1cccc(Cl)c1)c1cccc(Cl)c1)C(=O)N[C@H](C=O)C[C@@H]1CCNC1=O` (stereo partly drawn) [Compound C282, 1,2-Bis(3-chlorophenyl)ethyl ((S)-4-methyl-1-oxo-1-(((S)-1-oxo-3-((S)-2-oxopyrrolidin-3-yl)propan-2-yl)amino)pentan-2-yl)carbamate]: 40 nM; for `CS(=O)(=O)N1CCC2(CC1)CC(CC(C=O)NC(=O)[C@H](CC1CCCCC1)NC(=O)OC1CCCC1Cc1cccc(Cl)c1)C(=O)N2` (stereo partly drawn) [Compound C189, 2-(3-Chlorobenzyl)cyclopentyl ((2S)-3-cyclohexyl-1-((1-(8-(methylsulfonyl)-2-oxo-1,8-diazaspiro[4.5]decan-3-yl)-3-oxopropan-2-yl)amino)-1-oxopropan-2-yl)carbamate]: 340 nM.
Consider `O=C[C@H](CC1CCN(CCc2ccccc2)C1=O)NC(=O)[C@H](CC1CCCCC1)NC(=O)OCc1cccc(Cl)c1` (stereo partly drawn) [Compound C27, 3-Chlorobenzyl ((2S)-3-cyclohexyl-1-oxo-1-((1-oxo-3-(2-oxo-1-phenethylpyrrolidin-3-yl)propan-2-yl)amino)propan-2-yl) carbamate], for which the IC50 is over 200000 nM.
For `CCCCCCCOC(=O)N[C@@H](CC1CCCCC1)C(=O)N[C@H](C=O)CCC(=O)N1CCOc2ccccc2C1` [Compound C24, Heptyl ((S)-3-cyclohexyl-1-(((S)-5-(2,3-dihydrobenzo[f][1,4]oxazepin-4(5H)-yl)-1,5-dioxopentan-2-yl)amino)-1-oxopropan-2-yl)carbamate], the IC50 was over 200000 nM.
The same measure for `CC1(C)CC(CC(NC(=O)[C@H](CC2CCCCC2)NC(=O)OC(Cc2cccc(Cl)c2)c2ccccc2)C(=O)C(=O)NC2CC2)C(=O)N1` (stereo partly drawn) [Compound C155, 2-(3-Chlorophenyl)-1-phenylethyl ((2S)-3-cyclohexyl-1-((4-(cyclopropylamino)-1-(5,5-dimethyl-2-oxopyrrolidin-3-yl)-3,4-dioxobutan-2-yl)amino)-1-oxopropan-2-yl) carbamate]: 1560 nM; for `CC(C)C[C@H](NC(=O)OC(c1ccccc1)C1(c2cccc(Cl)c2)CCCC1)C(=O)N[C@H](C=O)C[C@@H]1CCNC1=O` (stereo partly drawn) [Compound C278]: 20 nM; for `O=C(N[C@@H](Cc1ccccc1)C(=O)N[C@@H](C[C@@H]1CCNC1=O)C(=O)C(=O)NC1CC1)OC1CCCC1Cc1cccc(Cl)c1` (stereo partly drawn) [Compound C146]: over 20000 nM.
The value for `O=C[C@H](CCC(=O)N1CCOc2ccc(Cl)cc2C1)NC(=O)[C@H](CC1CCCCC1)NC(=O)OCc1cccc(Cl)c1` [Compound C15, 3-Chlorobenzyl ((S)-1-(((S)-5-(7-chloro-2,3-dihydrobenzo[f][1,4]oxazepin-4(5H)-yl)-1,5-dioxopentan-2-yl)amino)-3-cyclohexyl-1-oxopropan-2-yl)carbamate] was over 200000 nM.
The same measure for `CC(=O)N1CCC2(CC1)CC(CC(C=O)NC(=O)[C@H](CC(C)C)NC(=O)c1cc3ccccc3[nH]1)C(=O)N2` (stereo partly drawn) [Compound C74, N-((2S)-1-((1-(8-acetyl-2-oxo-1,8-diazaspiro[4.5]decan-3-yl)-3-oxopropan-2-yl)amino)-4-methyl-1-oxopentan-2-yl)-1H-indole-2-carboxamide]: 140 nM; for `O=C(N[C@@H](CC1CCCCC1)C(=O)N[C@@H](C[C@@H]1CCNC1=O)C(=O)C(=O)NC1CC1)OCc1cccc(Cl)c1` [Compound C173]: 1430 nM; for `COc1cccc2[nH]c(C(=O)N[C@@H](CC3CCCCC3)C(=O)NC(C=O)CC3CC4(CCN(C(C)=O)CC4)NC3=O)cc12` (stereo partly drawn) [Compound C133, N-((2S)-1-((1-(8-acetyl-2-oxo-1,8-diazaspiro[4.5]decan-3-yl)-3-oxopropan-2-yl)amino)-3-cyclohexyl-1-oxopropan-2-yl)-4-methoxy-1H-indole-2-carboxamide]: 0.0855 nM.
Take `CC(=O)N1CCC2(CC1)C[C@@H](C[C@H](NC(=O)[C@H](CC1CCCCC1)NC(=O)c1cc3ccccc3[nH]1)C(=O)C(N)=O)C(=O)N2` [Compound C121, N—((S)-1-(((S)-1-((R)-8-acetyl-2-oxo-1,8-diazaspiro[4.5]decan-3-yl)-4-amino-3,4-dioxobutan-2-yl)amino)-3-cyclohexyl-1-oxopropan-2-yl)-1H-indole-2-carboxamide]: the IC50 amounted to 178 nM.
Consider `CC(C)(c1cccc(Cl)c1)[C@@H](OC(=O)N[C@@H](CC1CCCCC1)C(=O)N[C@@H](C[C@@H]1CCNC1=O)C(=O)C(=O)NC1CC1)c1cccc(F)c1` [Compound C184, (S)-2-(3-chlorophenyl)-1-(3-fluorophenyl)-2-methylpropyl ((S)-3-cyclohexyl-1-(((S)-4-(cyclopropylamino)-3,4-dioxo-1-((S)-2-oxopyrrolidin-3-yl)butan-2-yl)amino)-1-oxopropan-2-yl)carbamate], for which the IC50 was determined as 2320 nM.
The value for `CC(C)C[C@H](NC(=O)OC(c1ccccc1)C(C)(C)c1cccc(Cl)c1)C(=O)N[C@@H](C[C@@H]1CCNC1=O)C(=O)C(=O)N1CCN(C)CC1` (stereo partly drawn) [Compound C248] was 6930 nM; that for `CC(C)C[C@H](NC(=O)OC(C)Cc1ccccc1)C(=O)N[C@H](C=O)C[C@@H]1CCNC1=O` (stereo partly drawn) [Compound C39, 1-Phenylpropan-2-yl ((S)-4-methyl-1-oxo-1-(((S)-1-oxo-3-((S)-2-oxopyrrolidin-3-yl)propan-2-yl)amino)pentan-2-yl)carbamate] was 153 nM; that for `CC(C)C[C@H](NC(=O)OC(c1cccc(Cl)c1)C(C)(C)c1cccc(Cl)c1)C(=O)N[C@@H](C[C@@H]1CCNC1=O)C(=O)C(=O)NC1CC1` (stereo partly drawn) [Compound C286] was 70 nM.
The same measure for `CC(C)C[C@H](NC(=O)OC1(Cc2ccccc2)CC1)C(=O)N[C@@H](C[C@@H]1CCNC1=O)C(O)S(=O)(=O)O` (stereo partly drawn) [Compound C48, (2S)-2-((S)-2-(((1-Benzylcyclopropoxy)carbonyl)amino)-4-methylpentanamido)-1-hydroxy-3-((S)-2-oxopyrrolidin-3-yl) propane-1-sulfonate]: 241 nM; for `CC(C[C@@H](C=O)NC(=O)[C@H](CC1CCCCC1)NC(=O)OCc1cccc(Cl)c1)C(=O)N1CCOc2ccccc2C1` (stereo partly drawn) [Compound C29, 3-Chlorobenzyl ((2S)-3-cyclohexyl-1-(((2S)-5-(2,3-dihydrobenzo[f][1,4]oxazepin-4(5H)-yl)-4-methyl-1,5-dioxopentan-2-yl)amino)-1-oxopropan-2-yl)carbamate]: over 200000 nM.
The value for `CC(C)(c1cccc(Cl)c1)C(OC(=O)N[C@@H](CC1CCCCC1)C(=O)N[C@H](C=O)C[C@@H]1CCNC1=O)c1ccccc1` (stereo partly drawn) [Compound C110, 2-(3-Chlorophenyl)-2-methyl-1-phenylpropyl ((S)-3-cyclohexyl-1-oxo-1-(((S)-1-oxo-3-((S)-2-oxopyrrolidin-3-yl)propan-2-yl)amino)propan-2-yl) carbamate] was 1.4 nM.
Consider `CCCOC(=O)N[C@@H](CC1CCCCC1)C(=O)N[C@@H](CCC(=O)N1CCOc2ccccc2C1)C(O)P(=O)(OCC)OCC` (stereo partly drawn) [Compound C19, Propyl ((2S)-3-cyclohexyl-1-(((2S)-1-(diethoxyphosphoryl)-5-(2,3-dihydrobenzo[f][1,4]oxazepin-4(5H)-yl)-1-hydroxy-5-oxopentan-2-yl)amino)-1-oxopropan-2-yl)carbamate], for which the IC50 was found to be 94300 nM.
